target: T1, human GPR84 receptor (Homo sapiens, UniProt Q9NQS5); test: cAMP HTRF assay for identification of cellular GPR84 antagonists; type: cell-based; settings: CHO-K1 cells stably expressing human GPR84; Forskolin plus agonist 6-OAU; cAMP HTRF readout; average or median values
T1 construct: frozen aliquots prepared by acCELLerate; host or cells: CHO-K1
From the text: cAMP HTRF® Assay for Identification of Cellular GPR84 Antagonists
By using a Homogenous Time-Resolved Fluorescence (HTRF®) based assay (#62AM5PEJ, Cisbio, Condolet, France) the inhibition of the Gi-coupled GPR84 receptor can be detected. CHO-K1 cells stably expressing human GPR84 receptor (purchased from DiscoveRx, now Eurofins) were used and treated with Forskolin (F6886, Sigma, Germany) to stimulate membrane adenylyl cyclases and thereby unspecific cAMP formation. Activation of the Gi-coupled GPR84 by a natural or small molecule agonist (e.g. 6-n-octyl aminouracile, inhouse) results in inhibition of cellular cAMP formation which can be released again by antagonists to this receptor. Detection and quantification of cellular cAMP levels in this HTRF assay is achieved by interaction between a fluorescent cAMP tracer (cAMP-d2) and an Eu-cryptate labelled anti-cAMP antibody. Following excitation at 337 nm this pairing allows for the generation of a fluorescence resonance energy transfer (FRET) between the partners and results in FRET induced emissions at 665 nm and 620 nm, the latter representing background signal by Eu-cryptate labelled anti-cAMP antibody. Maximal signal is obtained in the absence of any cellular cAMP (no competition for the binding of the tracer to the antibody). Given the combination of the Gi coupling properties of GPR84 and the competitive nature of the detection system agonist treatment should result in an increase in the HTRF signal due to lowered cAMP levels. Any signal decrease in the presence of Forskolin, agonist and compound is indicative of antagonist mediated abrogation of GPR84 signalling.
For the assay, frozen aliquots of CHO-K1 cells expressing hGPR84 (prepared by acCELLerate, Hamburg, Germany) were thawed and a cell suspension (1.67E+06 cells/mL) in assay media (Ham's F12 Nutrient Mix, Thermo Fisher Scientific, Waltham, USA; 5% fetal calf serum, Biomol, Hamburg, Germany) containing cAMP-d2 (dilution 1:20, supplied with the kit #62AM5PEJ, Cisbio, Condolet, France) was prepared. After recovery of cells for 20 minutes at 37° C., 3 μL/well cell suspension including cAMP-d2 were added to a pre-dispensed assay plate (Greiner Bio-One, Kremsmuenster, Austria) containing 50 nl/well test compound in 100% DMSO or 100% DMSO as control. This was followed by a 30 minutes incubation step at room temperature. […] The reaction was stopped by addition of 3 μL/well lysis buffer containing cAMP Eu-Cryptate antibody (dilution 1:20) (both supplied with the kit #62AM5PEJ, Cisbio, Condolet, France). To enable complete lysis, plates were incubated for 60 minutes at room temperature before measurement in an HTRF reader, e.g. a PHERAstar (BMG Labtech, Ortenberg, Germany).
From the fluorescence emissions at 665 nm (FRET) and at 620 nm (background signal of Eu-cryptate) the ratio (emission at 665 nm divided by emission at 620 nm×10000) was calculated and the data were normalized (reaction without test compound, only 100% DMSO=0% inhibition; all other assay components except agonist=100% inhibition). For dose response testing on the same microtiter plate, compounds were tested at 11 different concentrations in the range of 20 μM to 0.07 nM (20 μM, 5.7 μM, 1.6 μM, 0.47 μM, 0.13 μM, 38 nM, 11 nM, 3.1 nM, 0.89 nM, 0.25 and 0.07 nM; dilution series prepared before the assay at the level of the 100-fold conc. stock solutions by serial 1:3.5 dilutions in 100% DMSO) in duplicate values for each concentration. IC50 values were calculated by 4-parameter fitting using a commercial software package (Genedata Screener, Basel, Switzerland).
Examples were tested in selected biological assays one or more times. […]

T1 sequence (Q9NQS5 whole entry): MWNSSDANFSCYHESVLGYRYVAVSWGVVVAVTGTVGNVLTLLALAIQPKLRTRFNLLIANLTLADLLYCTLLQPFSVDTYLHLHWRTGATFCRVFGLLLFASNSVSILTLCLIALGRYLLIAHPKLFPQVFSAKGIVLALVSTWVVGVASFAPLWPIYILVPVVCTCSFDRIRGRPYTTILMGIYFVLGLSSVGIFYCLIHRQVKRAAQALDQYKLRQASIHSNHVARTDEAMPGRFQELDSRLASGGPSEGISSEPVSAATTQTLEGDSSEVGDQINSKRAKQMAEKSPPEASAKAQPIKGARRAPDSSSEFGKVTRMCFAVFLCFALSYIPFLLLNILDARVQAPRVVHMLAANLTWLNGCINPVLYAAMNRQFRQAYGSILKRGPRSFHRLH

| Compound | IC50 |
| --- | --- |
| CC1CCC(CNC(=O)c2oc3ccc4cn(C[C@H]5COCCO5)nc4c3c2C(F)(F)F)O1 (mixture of isomers) [Example 7, 2-{[(2S)-1,4-dioxan-2-yl]methyl}-N-{[(2RS,5RS)-5-methyltetrahydrofuran-2-yl]methyl}-8-(trifluoromethyl)-2H-furo[2,3-g]indazole-7-carboxamide] | 13 nM |
| CC1(C)COC(CNC(=O)c2oc3ccc4cn(C[C@H]5COCCO5)nc4c3c2C(F)(F)F)C1 (mixture of isomers) [Example 5] | 9 nM |
| O=C(NCC1CC(F)(F)CO1)c1oc2ccc3cn(C[C@H]4COCCO4)nc3c2c1C(F)(F)F (mixture of isomers) [Example 6] | 11 nM |
| O=C(NC[C@@H]1COCCO1)c1oc2ccc3cn(C[C@H]4COCCO4)nc3c2c1C(F)(F)F [Example 1, N-{[(2R)-1,4-dioxan-2-yl]methyl}-2-{[(2S)-1,4-dioxan-2-yl]methyl}-8-(trifluoromethyl)-2H-furo[2,3-g]indazole-7-carboxamide] | 16 nM |
| O=C(NC[C@@H]1CCCO1)c1oc2ccc3cn(C[C@H]4COCCO4)nc3c2c1C(F)(F)F [Example 2] | 7 nM |
| Cc1ccc(Cn2cc3ccc4oc(C(=O)NC[C@@H]5COCCO5)c(C(F)(F)F)c4c3n2)cn1 [Example 3, N-{[(2R)-1,4-dioxan-2-yl]methyl}-2-[(6-methylpyridin-3-yl)methyl]-8-(trifluoromethyl)-2H-furo[2,3-g]indazole-7-carboxamide] | 7 nM |
| Cc1ccc(Cn2cc3ccc4oc(C(=O)NC[C@@H]5CCCO5)c(C(F)(F)F)c4c3n2)cn1 [Example 4] | 9 nM |
| O=C(NCCC1CC1)c1oc2ccc3cn(C[C@H]4COCCO4)nc3c2c1C(F)(F)F [Example 8] | 1040 nM |
| CS(=O)(=O)CCNC(=O)c1oc2ccc3cn(C[C@H]4COCCO4)nc3c2c1C(F)(F)F [Example 9] | 3490 nM |
| O=C(NCc1cocn1)c1oc2ccc3cn(C[C@H]4COCCO4)nc3c2c1C(F)(F)F [Example 10] | 100 nM |
| Cn1cnc(CNC(=O)c2oc3ccc4cn(C[C@H]5COCCO5)nc4c3c2C(F)(F)F)c1 [Example 11] | 75 nM |
| O=C(NCc1nccs1)c1oc2ccc3cn(C[C@H]4COCCO4)nc3c2c1C(F)(F)F [Example 12] | 18 nM |
| O=C(NCc1cncs1)c1oc2ccc3cn(C[C@H]4COCCO4)nc3c2c1C(F)(F)F [Example 13] | 490 nM |
| O=C(NCc1ncccn1)c1oc2ccc3cn(C[C@H]4COCCO4)nc3c2c1C(F)(F)F [Example 14] | 48 nM |
| O=C(NCc1cnccn1)c1oc2ccc3cn(C[C@H]4COCCO4)nc3c2c1C(F)(F)F [Example 15] | 49 nM |
| O=C(NCc1ccncn1)c1oc2ccc3cn(C[C@H]4COCCO4)nc3c2c1C(F)(F)F [Example 16] | 120 nM |
| O=C(NCc1cccnn1)c1oc2ccc3cn(C[C@H]4COCCO4)nc3c2c1C(F)(F)F [Example 17] | 460 nM |
| Cc1ccc(CNC(=O)c2oc3ccc4cn(C[C@H]5COCCO5)nc4c3c2C(F)(F)F)nc1 [Example 18, 2-{[(2S)-1,4-dioxan-2-yl]methyl}-N-[(5-methylpyridin-2-yl)methyl]-8-(trifluoromethyl)-2H-furo[2,3-g]indazole-7-carboxamide] | 7 nM |
| Cc1ccnc(CNC(=O)c2oc3ccc4cn(C[C@H]5COCCO5)nc4c3c2C(F)(F)F)c1 [Example 19, 2-{[(2S)-1,4-dioxan-2-yl]methyl}-N-[(4-methylpyridin-2-yl)methyl]-8-(trifluoromethyl)-2H-furo[2,3-g]indazole-7-carboxamide] | 53 nM |
| Cc1cnc(CNC(=O)c2oc3ccc4cn(C[C@H]5COCCO5)nc4c3c2C(F)(F)F)cn1 [Example 20, 2-{[(2S)-1,4-dioxan-2-yl]methyl}-N-[(5-methylpyrazin-2-yl)methyl]-8-(trifluoromethyl)-2H-furo[2,3-g]indazole-7-carboxamide] | 18 nM |
| Cc1ccc(CNC(=O)c2oc3ccc4cn(C[C@H]5COCCO5)nc4c3c2C(F)(F)F)nn1 [Example 21] | 350 nM |
| N#Cc1ccc(CNC(=O)c2oc3ccc4cn(C[C@H]5COCCO5)nc4c3c2C(F)(F)F)nc1 [Example 22] | 13 nM |

— patent US20240417407A1, “FUROINDAZOLE DERIVATIVES AS GPR84 ANTAGONISTS” (Bayer Aktiengesellschaft, priority 2021, published 2024)
